SMILES strings stand for the structures. In brackets after ≈: the same amount, converted by molar mass.

Data on 12 compounds can be found in ChEMBL document CHEMBL1137616, “Poorly soluble marketed drugs display solvation limited solubility” (J Med Chem, 2007).

The nature of this data set: Solubility by shake flask method.
For orientation: Solubility means the concentration that dissolves in the medium under given conditions. Read a high Solubility as much dissolved substance. Consider `CCCSc1ccc2nc(NC(=O)OC)[nH]c2c1` [ALBENDAZOLE], for which the Solubility amounted to 0.983 µM (≈ 0.261 µg/mL). That is a sub-micromolar value.

`CC(C)(C)c1ccc(C(O)CCCN2CCC(C(O)(c3ccccc3)c3ccccc3)CC2)cc1` (configuration not stated) [TERFENADINE] showed a Solubility of 0.0116 µM (≈ 0.00547 µg/mL). Against the preceding compound, the Solubility is about 85-fold lower.

As for `Cc1c(C)c2c(c(C)c1O)CCC(C)(COc1ccc(CC3SC(=O)NC3=O)cc1)O2` (configuration not stated) [TROGLITAZONE], the Solubility is < 0.0159 µM.

`COc1ccc(CCN2CCC(Nc3nc4ccccc4n3Cc3ccc(F)cc3)CC2)cc1` [ASTEMIZOLE] registered a Solubility of 0.0668 µM (≈ 0.0306 µg/mL).

Turning to `CCOC(=O)C1=C(C)NC(C)=C(C(=O)OC)C1c1cccc(Cl)c1Cl` (configuration not stated) [FELODIPINE], the Solubility came out at 0.276 µM (≈ 0.106 µg/mL).

Consider `Cc1c(C(=O)NN2CCCCC2)nn(-c2ccc(Cl)cc2Cl)c1-c1ccc(Cl)cc1` [RIMONABANT], for which the Solubility came to 0.0965 µM (≈ 0.0448 µg/mL).

Regarding `COc1ccc2c(c1)c(CC(=O)O)c(C)n2C(=O)c1ccc(Cl)cc1` [INDOMETHACIN], the Solubility was 1.1333 µM (≈ 0.405 µg/mL).

Compound `COc1ccccc1OCCNCC(O)COc1cccc2[nH]c3ccccc3c12` (configuration not stated) [CARVEDILOL] came in with a Solubility of 0.713 µM (≈ 0.29 µg/mL).

Consider `Cc1c(Cl)cccc1Nc1ccccc1C(=O)O` [TOLFENAMIC ACID], for which the Solubility came out at 0.0136 µM (≈ 0.00356 µg/mL).

Turning to `CCC1=C(C)CN(C(=O)NCCc2ccc(S(=O)(=O)NC(=O)N[C@H]3CC[C@H](C)CC3)cc2)C1=O` [GLIMEPIRIDE], the Solubility was 0.0127 µM (≈ 0.00623 µg/mL).

As for `CCC(C)n1ncn(-c2ccc(N3CCN(c4ccc(OCC5COC(Cn6cncn6)(c6ccc(Cl)cc6Cl)O5)cc4)CC3)cc2)c1=O` (configuration not stated) [ITRACONAZOLE], the Solubility came to 0.0033 µM (≈ 0.00233 µg/mL).

In turn, `COc1ccc(Cl)cc1C(=O)NCCc1ccc(S(=O)(=O)NC(=O)NC2CCCCC2)cc1` [GLYBURIDE] gave a Solubility of 0.0891 µM (≈ 0.044 µg/mL).
